Blank lines part the entries; values can stand above or below the compound they belong to.
Experiments:
Format in all cases: physicochemical
[1] = Competitive slurry studies in water, form by XRPD
Protocol: Competitive slurry studies of Compound A, Forms II, IIA, IIB, III, IV, V, and VI were conducted at RT (room temperature, about 20° C.) and 50° C. in water. […] A small portion of the slurry was transferred to 50° C. after 2 days and analyzed using powder X-ray after being slurred at 50° C. for 2 hours (where a sample of the slurry was placed on an XRPD sample holder, the solvent allowed to evaporate under ambient conditions to yield a residue, and an XRPD measured for the residue). Complete conversion to Form I took place within 2 hours of heating.

[2] = Visual solubility of Compound A, Form I in solvents; conditions: 50 mg in 10 mL, stirred, heated to 40° C.; for solubility: organic solvent or mixture, thermodynamic from solid
Text: An automated solid-state form screening of Compound A was done using a binary solvent system. Screening experiments consisted of an array of 13 solvents (water, methanol, ethanol, acetone, acetonitrile, isopropyl alcohol, ethyl acetate, toluene, tetrahydrofuran (THF), dichloromethane, 2-butanone (MEK), 1-butanol, and heptane) under slow evaporation crystallization conditions. Specifically, saturated solutions of Compound A (prepared as described in Example 1 above) in 13 different solvents were prepared by adding solid powder of Compound A, Form I (50 mg, prepared as described in Example 1 above) and the selected solvent to 20 mL vials. The resulting solutions were stirred and heated to 40° C. All preparations dissolved quickly except in water, toluene, and heptane. Table 1 provides a summary of the visual solubility of Compound A, Form I in the noted solvents.

[3] = Hygroscopicity and water solubility by USP methods; conditions: isolated solid, freebase
Protocol: The isolated solid (Compound A, as a freebase) was a white crystalline solid, hygroscopic and insoluble in water as determined by USP methods. […] The XRD for Form I of Compound A differed from the XRD of a sample of the HCl salt of Compound A (e.g., FIG. 15). […] (equivalent to 0.23 mole of water) due to surface water loss and 0.5% between 182° C. and 219° C. due to melting/decomposition (as shown in FIG. 12). This differed from the TGA spectrum of the HCl salt of Compound A (e.g., FIG. 17).

[4] = Moisture sorption analysis (DVS)
Protocol: The moisture sorption analysis was performed using a Hiden Isochema system Model IGAsorp. The sample was run in a stainless-steel mesh crucible. The sample was initially dried at 60° C. for 30 minutes then the moisture profile was evaluated by monitoring vapor adsorption/desorption over the range of 0 to 90% relative humidity at 25° C. The moisture profile consisted of 2 cycles of vapor adsorption/desorption.

[5] = Slurry studies in organic solvents, form by XRPD
Protocol: Small scale saturated solutions of Compound A, Form I (prepared as described in Example 1 above) in the organic solvents noted in Example 2, except water, toluene, or heptane, were prepared as follows. Compound A, Form I (5-10 mg) was added to 2 mL HPLC vials and the selected solvent (50 μL) was added. The resulting slurries were stirred at 300 rpm for up to 1 day. At 1 hour and 1 day time-points, a sample of each slurry was placed on an XRPD sample holder and the solvent evaporated under ambient conditions to yield a solid residue which was then analyzed by X-ray powder diffraction.

[6] = at the end of a second moisture sorption-desorption cycle

Time to complete conversion to Form I ([1]; competitive slurry in water at RT (about 20° C.)): 3 days
SMILES: CC1(C)CC=C(c2nc(C3CC(C)(C)OC(C)(C)C3)ccc2NC(=O)c2nc(C#N)c[nH]2)CC1 [Compound A, Form II, 4-cyano-N-[2-(4,4-dimethylcyclohex-1-en-1-yl)-6-(2,2,6,6-tetramethyltetrahydro-2H-pyran-4-yl)pyridine-3-yl]-1H-imidazole-2-carboxamide]

Visual Solubility ([2]; 1-Butanol): Dissolve | Visual Solubility ([2]; Acetone): Dissolve | Visual Solubility ([2]; Acetonitrile): Dissolve | Visual Solubility ([2]; Dichloromethane): Dissolve | Visual Solubility ([2]; Ethanol): Dissolve | Visual Solubility ([2]; Ethyl Acetate): Dissolve | Visual Solubility ([2]; Heptane): Suspension | solubility ([2]; IPA (isopropyl alcohol), IPA): > 5000 µg/mL | Visual Solubility ([2]; IPA): Dissolve | Visual Solubility ([2]; Methanol): Dissolve | Visual Solubility ([2]; MethylEthylKetone (MEK)): Dissolve | Visual Solubility ([2]; THF): Dissolve | Visual Solubility ([2]; Toluene): Suspension | Visual Solubility ([2]; Water): Suspension | solubility ([2]; methyl ethyl ketone (MEK, 2-butanone), MethylEthylKetone (MEK)): > 5000 µg/mL | solubility ([2]; 1-Butanol): > 5000 µg/mL | solubility ([2]; Acetone): > 5000 µg/mL | solubility ([2]; Acetonitrile): > 5000 µg/mL | solubility ([2]; Dichloromethane): > 5000 µg/mL | solubility ([2]; Ethanol): > 5000 µg/mL | solubility ([2]; Ethyl Acetate): > 5000 µg/mL | solubility ([2]; Methanol): > 5000 µg/mL | solubility ([2]; tetrahydrofuran (THF), THF): > 5000 µg/mL | Hygroscopicity [3]: hygroscopic | Solubility in water [3]: insoluble | Hygroscopicity by DVS ([4]; 0 to 90% relative humidity at 25° C.): hygroscopic | Crystalline form upon humidity cycling (XRPD before and after DVS) ([4]; 2 cycles of adsorption/desorption): did not change | Moisture retained [4, 6]: 1.8% | Moisture retained, equivalent mole of water [4, 6]: 0.47 mole of water | Moisture adsorption ([4]; up to 90% RH, 25° C.): 41.8% | Saturated Conc. ([5]; 1-Butanol slurry): 90 mg/mL | Saturated Conc. ([5]; Acetone slurry): 130 mg/mL | Saturated Conc. ([5]; Acetonitrile slurry): 80 mg/mL | Saturated Conc. ([5]; DCM (dichloromethane) slurry): 210 mg/mL | Saturated Conc. ([5]; Ethanol slurry): 110 mg/mL | Saturated Conc. ([5]; Ethyl Acetate slurry): 120 mg/mL | Saturated Conc. ([5]; IPA (isopropyl acetate) slurry): 95 mg/mL | Saturated Conc. ([5]; Methanol slurry): 80 mg/mL | Saturated Conc. ([5]; THF (tetrahydrofuran) slurry): 420 mg/mL | XRPD pattern of solids isolated from solvent slurries ([5]; all solvent slurries except THF and DCM): consistent with Form I | Relative thermodynamic stability of polymorphs ([1]; as indicated by competitive slurry, hypothesized): most thermodynamically stable polymorph
SMILES: CC1(C)CC=C(c2nc(C3CC(C)(C)OC(C)(C)C3)ccc2NC(=O)c2nc(C#N)c[nH]2)CC1 [Compound A, Form I, 4-cyano-N-[2-(4,4-dimethylcyclohex-1-en-1-yl)-6-(2,2,6,6-tetramethyltetrahydro-2H-pyran-4-yl)pyridine-3-yl]-1H-imidazole-2-carboxamide]

Reference: US10314821B2, “Crystalline forms of 4-cyano-N-(2-(4,4-dimethylcyclohex-1-en-1-yl)-6-(2,2,6,6-tetramethyltetrahydro-2H-pyran-4-yl)pyridin-3-yl)-1H-imidazole-2-carboxamide” (Janssen Pharmaceutica NV, priority 2016, dated 2019)
